Experimental data: patent US6410009B1, “Pharmaceutical composition for treating hepatitis B virus (HBV) infection” (Hadasit Medical Research Services & Development Co., Ltd., priority 1997, dated 2002)

Columns and labels:
HBV [1] = experiment: HBV viremia in SCID>BNX chimeric mice transplanted with normal human liver fragments incubated ex-vivo with HBV-positive sera with hIL6
Protocol: A fragment of normal human liver from a patient with no indication of any HBV-related markers or disease, was incubated ex-vivo with a high titer HBV DNA-positive serum prior to transplantation under the kidney capsule of the chimeric animals. HBV DNA sequences were undetectable by PCR from two different genomic regions in any of these animals during the month following transplantation.
However, when liver tissue originating from the same patients was incubated ex-vivo with the above-mentioned HBV DNA-positive sera together with hIL6, HBV DNA sequences were detected from day 16 to day 31, in sera of about 50% of the transplanted animals.
Pre-exposure of liver tissue to hIL6 prior to incubation with HBV ex-vivo, increased infection to about 90% of the animals. […]
The 50 μl PCR reaction volume contained 10 pmole of each oligonucleotide primer in reaction buffer (10 mM Tris-HCl, pH 8.3, 50 mM KCl, 2.0 mM MgCl2, 0.01 % (w/v) gelatin, 250 μM of dATP, dGTP, dCTP, dTTP and 0.5 u of Taq polymerase. The reaction mixtures were overlaid with 30 μl of mineral oil. PCR cycles included 94° C. for 1 min., 55° C. for 1 min. and 72° C. for 3 min., 35 repeated cycles. 10 μl of reaction mixture was analyzed on a 2% agarose gel. Oligonucleotides used for the pre-core/core amplification were: […]

HBV [2] = experiment: HBV-DNA by PCR in sera of chimeric mice after intrasplenic injection of HepG2-derived cell lines incubated with HBV with or without hIL6; type: in vivo, SCID>BNX chimeric mice; conditions: HepG2-hIL6R cells incubated with HBV in the presence of hIL6
Protocol: Following incubation, the various mixtures were injected intrasplenically to the chimeric mice to generate HCC foci in the liver, as shown in FIG. 4.
All cell lines grew in T25 flasks supplemented with DMEM medium, enriched with 10% fetal bovine serum. For infection experiments, cells were trypsinized and washed twice with PBS, followed by incubation with HBV-positive human sera ([…]) in the presence or absence of hIL6 (500 ng/ml) in 1-2 ml of DMEM. After 2-4 h incubation at 37° C., 4×10^6 cells/ml, 0.5 ml/mouse were injected intrasplenically to 8-10 SCID>BNX mice in each group. Animals were splenectomized following the injection.
Mice were bled at two weekly intervals for 3 months, and DNA was extracted from 100 μl sera. The DNA was subjected to PCR amplification. The DNA extraction and the PCR method applied are described in the legend of FIG. 3.

HBV [3] = experiment: HBV infection of human hepatocellular carcinoma cell line HuH7; type: cell-based; conditions: hIL-6 500 ng/ml
Protocol: HBV infection protocol of human hepatocellular carcinoma cell line HuH7: Human sera were screened for the presence of HBV DNA sequences. Positive sera were analyzed quantitatively for viral particle concentration, as described by A. Klein, J. Clin. Microb., vol. 35, pp. 1897-1899 […]. Sera containing over 108 particles per ml were selected for infection experiments. The infection experiments included the following groups: Group 1—Cells were incubated with HBV without the addition of hIL-6 in the presence of polybrene 2 mg/ml, for 90 min at 37° C., in a 5% CO2 shaking incubator, in a total volume of 1.5 to 2 ml. Group 2—Cells were incubated with 1 ml of HBV positive serum, in the presence of hIL-6 (500 ng/ml) and polybrene 2 mg/ml, for 90 min at 37° C., in a 5% CO2 incubator, in a total volume of 1.5 to 2 ml. Group 3—Cells were incubated with 1 ml of HBV positive serum, in the presence of the cytokine hyper-IL-6 (HIL-6), 1.5 mg/ml, and polybrene 2 mg/ml, for 90 min at 37° C., in a 5% CO2 shaking incubator, in a total volume of 1.5 to 2 ml. The preparation of the cytokine hyper-IL-6 (HIL-6) is described in M. Fischer, et al., Nat. Biotechnol., vol. 15, pp. 142-145 (1997); T. Rakemann et al., J. Biol. Chem., vol. 274, pp. 1257-1266 (1999); P. Schirmacher et al., Am. J. Pathol., vol. 153, pp. 639-648 (1998). […]

hIL6: human interleukin 6
transplanted animals with HBV DNA sequences detected in sera (HBV [1]; liver tissue incubated ex-vivo with HBV DNA-positive sera together with hIL6 (500 ng/ml), day 16 to day 31): about 50% | animals infected (HBV [1]; pre-exposure of liver tissue to hIL6 prior to incubation with HBV ex-vivo): about 90% | time after transplantation at which HBV-DNA sequences could be detected in serum (HBV [2]): 13 days | HBV infection of HuH7 cells (HBV [3]): enhanced
